# Read-outs that look alike come from different tables or passages of the source.
# How the values were obtained:
# [1] = system: human SKM-1 acute myeloid leukemia cells; assay: SKM-1 antiproliferation cell-based assay (ATPlite)
# Method in brief: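 Log-phase cells in RPMI 1640/15% FBS were seeded at 34722 cells/mL and exposed for 4 days to nine-concentration DMSO serial dilutions in triplicate. Viability was read as ATP luminescence (ATPlite 1step), and IC50 values came from variable-slope non-linear regression.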
# [2] = target: T1, human BRD4 bromodomain II (Homo sapiens, UniProt O60885); assay: Bromodomain binding assay (AlphaScreen), BRD4 BDII
# T1 construct: human BRD4 bromodomain II [based on Genbank NM_058243, residues 349-460]; host or cells: E. coli
# Method in brief: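 Tagged BRD4 BDI or BDII constructs, expressed in E. coli, competed against a K5/K8/K12/K16-acetylated biotin-H4 peptide. Proximity signal between bead pairs after room-temperature incubations gave concentration-response curves, from which IC50 was derived.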
# [3] = Homo sapiens, SKM-1, 96 h, SKM-1 antiproliferation assay, 4 days, Table C2
# [4] = AlphaScreen assay, Table C2, read-out: BRD4 BDII IC50
# [5] = Homo sapiens, SKM-1, SKM-1 antiproliferation assay
# [6] = BRD4 BDII AlphaScreen assay, read-out: BRD4 BD2 IC50
SMILES,"GI50 [1, 3] [nM]","IC50 [2, 4] [nM]","GI50 [1, 5] [nM]","IC50 [2, 6] [nM]",GI50 ([1]; SKM-1 antiproliferation assay) [nM]
"Cn1ccn(-c2ccc(-c3cc(F)cc(-c4cncc(N5CCC6(CCCN6)C5)c4)c3O)cc2Cl)c1=O (stereo not drawn) [Example 692, 1-(3′-(5-(1,7-diazaspiro[4.4]nonan-7-yl)pyridin-3-yl)-3-chloro-5′-fluoro-2′-hydroxy-[1,1′-biphenyl]-4-yl)-3-methyl-1H-imidazol-2(3H)-one]",0.3 to 30,0.01 to 1,,,
"Cn1ccn(-c2ccc(-c3cc(=O)[nH]c(-c4cccc(N5CCN(C(C)(C)C)CC5)c4)c3O)cc2Cl)c1=O [Example 1040, 6-(3-(4-(tert-Butyl)piperazin-1-yl)phenyl)-4-(3-chloro-4-(3-methyl-2-oxo-2,3-dihydro-1H-imidazol-1-yl)phenyl)-5-hydroxypyridin-2(1H)-one]",,,300 to 3000,10 to 100,
"COc1ncc(-c2cc(F)cc(-c3ccc(-n4ccn(C)c4=O)c(Cl)c3)c2O)cc1N1CC(C)(O)C1 [Example 834, 1-(3-chloro-5′-fluoro-2′-hydroxy-3′-(5-(3-hydroxy-3-methylazetidin-1-yl)-6-methoxypyridin-3-yl)-[1,1′-biphenyl]-4-yl)-3-methyl-1H-imidazol-2(3H)-one]",0.3 to 30,1 to 10,,,
"[2H]C([2H])([2H])n1ccn(-c2ccc(-c3cc(F)cc(-c4ccnc(N5CC[C@H](N)C5)c4)c3O)cc2Cl)c1=O [Example 451, (S)-1-(3′-(2-(3-aminopyrrolidin-1-yl)pyridin-4-yl)-3-chloro-5′-fluoro-2′-hydroxy-[1,1′-biphenyl]-4-yl)-3-deuteromethyl-1H-imidazol-2(3H)-one]",0.3 to 30,0.01 to 1,,,
"O=C1N(c2ccc(-c3cccc(-c4ccnc(N5CCNCC5)c4)c3O)cc2Cl)CCC12CC2 [Example 341, 5-(3-chloro-2′-hydroxy-3′-(2-(piperazin-1-yl)pyridin-4-yl)-[1,1′-biphenyl]-4-yl)-5-azaspiro[2.4]heptan-4-one]",300 to 3000,10 to 100,,,
"CC(=O)Nc1ccc(-c2cccc(-c3cc(OC4CC4)nc(N4CCNCC4)c3)c2O)cc1F [Example 351, N-(3′-(2-cyclopropoxy-6-(piperazin-l-yl)pyridin-4-yl)-3-fluoro-2′-hydroxy-[1,1′-biphenyl]-4-yl)acetamide]",300 to 3000,10 to 100,,,
"Cn1cc(-c2cc(F)cc(-c3ccc(-n4ccn(C)c4=O)c(Cl)c3)c2O)cc(N2CCN(C(C)(C)C)CC2)c1=O [Example 668, 3-(4-(tert-butyl)piperazin-1-yl)-5-(3′-chloro-5-fluoro-2-hydroxy-4′-(3-methyl-2-oxo-2,3-dihydro-1H-imidazol-1-yl)-[1,1′-biphenyl]-3-yl)-1-methylpyridin-2(1H)-one]",0.3 to 30,0.01 to 1,,,
"Cn1ccn(-c2ccc(-c3cc(F)cc(-c4ccnc(N5CC[C@H](N)C5)c4)c3N)cc2Cl)c1=O [Example 541, (S)-1-(2′-amino-3′-(2-(3-aminopyrrolidin-1-yl)pyridin-4-yl)-3-chloro-5′-fluoro-[1,1′-biphenyl]-4-yl)-3-methyl-1H-imidazol-2(3H)-one]",30 to 300,1 to 10,,,
"Cn1cc(-c2cc(F)cc(-c3ccc(-n4ccn(C)c4=O)c(Cl)c3)c2O)cc(N2CC[C@](C)(N)C2)c1=O [Example 759, (S)-3-(3-amino-3-methylpyrrolidin-1-yl)-5-(3′-chloro-5-fluoro-2-hydroxy-4′-(3-methyl-2-oxo-2,3-dihydro-1H-imidazol-1-yl)-[1,1′-biphenyl]-3-yl)-1-methylpyridin-2(1H)-one]",0.3 to 30,0.01 to 1,,,
"Cn1ccn(-c2ccc(-c3cc(F)cc(-c4ccnc(N5CCN[C@H](CN)C5)c4)c3O)cc2Cl)c1=O [Example 680, (R)-1-(3′-(2-(3-(aminomethyl)piperazin-l-yl)pyridin-4-yl)-3-chloro-5′-fluoro-2′-hydroxy-[1,1′-biphenyl]-4-yl)-3-methyl-1H-imidazol-2(3H)-one]",30 to 300,0.01 to 1,,,
"CN1CCN(c2ccc(-c3cccc(-c4cc(-c5ccccc5)nc(N5CCNCC5)c4)c3O)cc2Cl)C1=O [Example 344, 1-(3-chloro-2′-hydroxy-3′-(2-phenyl-6-(piperazin-1-yl)pyridin-4-yl)-[1,1′-biphenyl]-4-yl)-3-methylimidazolidin-2-one]",30 to 300,10 to 100,,,
"Cn1ccn(-c2ccc(-c3cc(F)cc(-c4ccc5ncc(C(C)(C)O)cc5c4)c3O)cc2Cl)c1=O [Example 796, 1-(3-chloro-5′-fluoro-2′-hydroxy-3′-(3-(2-hydroxypropan-2-yl)quinolin-6-yl)-[1,1′-biphenyl]-4-yl)-3-methyl-1H-imidazol-2(3H)-one]",30 to 300,1 to 10,,,
"[2H]C([2H])([2H])n1ccn(-c2ccc(-c3cc(F)cc(-c4ccnc(N5CCC[C@H](N)C5)c4)c3O)cc2Cl)c1=O [Example 452, (S)-1-(3′-(2-(3-aminopiperidin-1-yl)pyridin-4-yl)-3-chloro-5′-fluoro-2′-hydroxy-[1,1′-biphenyl]-4-yl)-3-deuteromethyl-1H-imidazol-2(3H)-one]",0.3 to 30,0.01 to 1,,,
"Cn1ccn(-c2ccc(-c3cc(F)cc(-c4ccnc(N5CCC6(CCCN6)C5)c4)c3O)cc2Cl)c1=O (stereo not drawn) [Example 636, 1-(3′-(2-(1,7-diazaspiro[4.4]nonan-7-yl)pyridin-4-yl)-3-chloro-5′-fluoro-2′-hydroxy-[1,1′-biphenyl]-4-yl)-3-methyl-1H-imidazol-2(3H)-one]",0.3 to 30,0.01 to 1,,,
Cn1ccn(-c2ccc(-c3cc(F)cc(-c4ccnc(N5CC(F)(F)[C@@](C)(O)C5)c4)c3O)cc2Cl)c1=O [Example 882],,,,1 to 10,0.3 to 30
"Cn1ccn(-c2ccc(-c3cc(F)cc(-c4cc(F)cc(N5CCN(C(C)(C)C)CC5)c4)c3O)cc2Cl)c1=O [Example 754, 1-(3″-(4-(tert-butyl)piperazin-1-yl)-3-chloro-5′,5″-difluoro-2′-hydroxy-[1,1′:3′,1″-terphenyl]-4-yl)-3-methyl-1H-imidazol-2(3H)-one]",0.3 to 30,0.01 to 1,,,
Cc1cc(-c2cc(-c3cn[nH]c3)nc(N3CCNCC3)c2)c(O)c(-c2ccc(-n3ccn(C)c3=O)c(Cl)c2)c1 [Example 566],0.3 to 30,0.01 to 1,,,
"CC(C)N1CCC[C@]12CCN(c1cccc(-c3cc(F)cc(-c4ccc(-n5ccn(C)c5=O)c(Cl)c4)c3O)c1)C2 [Example 967, (R)-1-(3-chloro-5′-fluoro-2′-hydroxy-3″-(1-isopropyl-1,7-diazaspiro[4.4]nonan-7-yl)-[1,1′:3′,1″-terphenyl]-4-yl)-3-methyl-1,3-dihydro-2H-imidazol-2-one]",,,30 to 300,1 to 10,
C[C@@H]1CN(c2cc(-c3cc(F)cc(-c4ccc(-n5ccn(C)c5=O)c(Cl)c4)c3O)cn3ccnc23)CCN1 [Example 584],0.3 to 30,0.01 to 1,,,
C[C@@H]1CN(c2cc(-c3cc(F)cc(-c4ccc(-n5ccn(C)c5=O)c(Cl)c4)c3O)cc3c2cnn3C)CCN1 [Example 580],0.3 to 30,0.01 to 1,,,
"Cc1cc(-c2cccc(N3CCN(C(C)(C)C)CC3)c2)c(O)c(-c2ccc(-n3ccn(C)c3=O)c(Cl)c2)n1 [Example 917, 1-(4-(4-(3-(4-(tert-Butyl)piperazin-1-yl)phenyl)-3-hydroxy-6-methylpyridin-2-yl)-2-chlorophenyl)-3-methyl-1H-imidazol-2(3H)-one]",,,30 to 300,1 to 10,
Cn1ccn(-c2ccc(-c3cc(F)cc(-c4cccc(-c5cccc(CO)c5)c4)c3O)cc2Cl)c1=O [Example 865],,,300 to 3000,10 to 100,
"CCc1cc(-c2cc(F)cc(-c3cccc(N4CCN(C(C)(C)C)CC4)c3)c2O)cc(Cl)c1-n1ccn(C)c1=O [Example 929, 1-(3″-(4-(tert-butyl)piperazin-1-yl)-3-chloro-5-ethyl-5′-fluoro-2′-hydroxy-[1,1′:3′,1″-terphenyl]-4-yl)-3-methyl-1H-imidazol-2(3H)-one]",,,300 to 3000,> 100,
"Cn1ccn(-c2ccc(-c3cc(F)cc(-c4ccnc(N5CC6CCC(C5)C6(C)O)c4)c3O)cc2Cl)c1=O (stereo not drawn) [Example 785, 1-(3-chloro-5′-fluoro-2′-hydroxy-3′-(2-(8-hydroxy-8-methyl-3-azabicyclo[3.2.1]octan-3-yl)pyridin-4-yl)-[1,1′-biphenyl]-4-yl)-3-methyl-1H-imidazol-2(3H)-one]",30 to 300,1 to 10,,,
"Cn1ccn(-c2c(Cl)cc(-c3cc(F)cc(-c4cccc(N5CCN(C(C)(C)C)CC5)c4)c3O)cc2C2CC2)c1=O [Example 933, 1-(3″-(4-(tert-butyl)piperazin-1-yl)-3-chloro-5-cyclopropyl-5′-fluoro-2′-hydroxy-[1,1′:3′,1″-terphenyl]-4-yl)-3-methyl-1H-imidazol-2(3H)-one]",,,30 to 300,10 to 100,
"Cn1ccn(-c2ccc(-c3cc(F)cc(-c4ccnc(N5CC(N)C6(CC6)C5)c4)c3O)cc2Cl)c1=O (stereo not drawn) [Example 755, 1-(3′-(2-(7-amino-5-azaspiro[2.4]heptan-5-yl)pyridin-4-yl)-3-chloro-5′-fluoro-2′-hydroxy-[1,1′-biphenyl]-4-yl)-3-methyl-1H-imidazol-2(3H)-one]",0.3 to 30,0.01 to 1,,,
"CN1CCOC2CN(c3cc(-c4cc(F)cc(-c5ccc(-n6ccn(C)c6=O)c(Cl)c5)c4O)ccn3)CC21 (stereo not drawn) [Example 649, 1-(3-chloro-5′-fluoro-2′-hydroxy-3′-(2-(4-methylhexahydropyrrolo[3,4-b][1,4]oxazin-6(2H)-yl)pyridin-4-yl)-[1,1′-biphenyl]-4-yl)-3-methyl-1H-imidazol-2(3H)-one]",30 to 300,1 to 10,,,

# — patent US20250179059A1 (The Regents of the University of California, priority 2021, published 2025)
